In patent US8829015B2 (Novartis AG, priority 2005, dated 2014):
In brackets after ≈: the same amount, converted by molar mass. Where a name gives a salt, the structure may show the parent alone.

What was measured:
[1] = Thermal properties by TGA and DSC; type: physicochemical
From the text: Form A's basic thermal properties were studied by thermogravimetric analysis (TGA) and differential scanning calorimetry (DSC) and are as follows:

physchem [2] = conditions: tetrahydrofuran/water (1:1), 25 °C, aqueous with cosolvent or surfactant or cyclodextrin, thermodynamic from solid
[3] = Hygroscopicity (water uptake); type: physicochemical; conditions: 25° C. up to 80% r.h.
[4] = Equilibration of free base forms with solvents, XRPD; type: physicochemical; conditions: thirteen solvents, one day, 25° C.
From the text: The solid part was investigated by XRPD.

physchem [5] = conditions: aqueous buffer solution, pH 1, simulated gastric fluid, thermodynamic from solid
[6] = Equilibration of hydrochloride forms A, B and C with solvents, XRPD; type: physicochemical
From the text: Then the solutions were filtered and the solid part investigated by XRPD.

[7] = Stability studies on storage; type: physicochemical; conditions: storage at various relative humidities
[8] = Equilibration of hydrochloride form B with solvents (approximate solubility by gravimetry, form by XRPD); conditions: for Solubility: equilibrated at least 20 hours
[9] = Compression with a hydraulic press, XRPD; type: physicochemical; conditions: 5 minutes at 10 tons, room temperature
[10] = Wetting with granulating solvent, XRPD; type: physicochemical; conditions: dried under vacuum
From the text: The material is vortexed between each addition. Then the material is dried under vacuum to <2% or less and evaluated for form and degree of crystallinity by XRPD or DSC.

[11] = Solubility by gravimetric techniques at different temperatures, residue by XRPD
[12] = Intrinsic dissolution rate (rotating disk); type: physicochemical; conditions: for Intrinsic dissolution rate: 37° C., 200 rpm
Protocol: Intrinsic Dissolution Rate (IDR): Dissolution rate measurements were performed at 37° C. using the rotating disk method (VanKell Instrument). A single rotation speed of 200 rpm was used. For IDR in 0.1N HCl, an 800 mL volume, and for IDR in water, a 200 mL volume were used. The solution was continuously pumped through a UV measuring cell and recycled to the dissolution vessel.
The measurements were carried out on a VanKel instrument using a Cary 100 photometer.

[13] = pH of 1% solution or suspension in water; type: physicochemical; conditions: 1% in water; listed as Hydrochloride monohydrate (form B)
[14] = Form conversion on exposure to solvent vapor, air, moisture or room conditions; type: physicochemical; conditions: in the presence of ethanol
[15] = 0.1N HCl, 50° C., after 24 hours

With `Cc1cn(-c2cc(NC(=O)c3ccc(C)c(Nc4nccc(-c5cccnc5)n4)c3)cc(C(F)(F)F)c2)cn1` [Form A of the free base] the Decomposition temperature [1] was >300 °C, the Solubility (physchem [2]) was 1780 µg/mL (≈ 3.36 mM) and the hygroscopicity [3] was “slightly hygroscopic”. For the same molecule, the maximum water uptake [3] was “less than 2%”, the “form transition on equilibration” value [4] was “No form transitions occurred” and the Solubility (physchem [5]) was > 200 µg/mL.

With `Cc1cn(-c2cc(NC(=O)c3ccc(C)c(Nc4nccc(-c5cccnc5)n4)c3)cc(C(F)(F)F)c2)cn1` [Form B of the hydrochloride salt] the “form transition on equilibration” value ([6]; 10 different solvents (ethanol, methanol, water, ethanol/water 99:1, methanol/water 99:1 and 99.3:0.7, methanol/HCl 0.1N, diethylether, hexane, tetrahydrofuran), one day, 25° C.) was “No form transitions occurred”, the “form transition on equilibration” value ([6]; ethanol, 50° C., 2 days) was “transitioned to a mixture of forms A and B” and the “form transition after storage” value [7] was “No form transitions were observed”. The Solubility ([8]; Acetonitrile, 25° C.) was 0.3 mg/g, the Solubility ([8]; Acetonitrile, 50° C.) was 2.1 mg/g and the Solubility ([8]; Acetonitrile-water 1:1, 25° C.) was 10.3 mg/g. The Solubility ([8]; DMSO, 50° C.) was >27.5 mg/g, the Solubility ([8]; Ethanol (96%), 25° C.) was 3.9 mg/g and the Solubility ([8]; Ethanol (96%), 50° C.) was 22.4 mg/g. It also gave a Solubility ([8]; Ethanol, 50° C.) of 26.5 mg/g, a Solubility ([8]; Ethanol-water 1:1, 50° C.) of 17.2 mg/g and a Solubility ([8]; Ethyl acetate, 25° C.) of 0.3 mg/g. For the same molecule, the Solubility ([8]; Ethyl acetate, 50° C.) was 3.0 mg/g, the Solubility ([8]; Methanol, 25° C.) was 16.3 mg/g and the “Form (XRPD) after equilibration” value ([8]; Methanol, 50° C., at least 20 hours) was “Solvate (as wet cake - dries to B)”. The Solubility ([8]; Methanol, 50° C.) was >27.5 mg/g, the Solubility ([8]; Propan-2-ol, 25° C.) was 1.5 mg/g and the Solubility ([8]; Propan-2-ol, 50° C.) was 4.8 mg/g. For the same molecule, the Solubility ([8]; Tetrahydrofuran, 25° C.) was 5.8 mg/g, the Solubility ([8]; Tetrahydrofuran-water 1:1, 25° C.) was 12.2 mg/g and the Solubility ([8]; Toluene, 25° C.) was 1.3 mg/g. The Solubility ([8]; Toluene, 50° C.) was 5.6 mg/g, the “change of crystalline modification (by XRPD) after compression” value [9] was “no change of crystalline modification” and the “XRPD results after granulation” value ([10]; granulating solvent Ethanol) was “No change”. For the same molecule, the “XRPD results after granulation” value ([10]; granulating solvent Water) was “No change”, the Solubility ([11]; 0.0001N HCl, 25° C., after 24 hours) was 470 µg/mL and the Solubility ([11]; 0.0001N HCl, 50° C., after 24 hours) was 1320 µg/mL. The Solubility ([11]; 0.001N HCl, 25° C., after 24 hours) was 700 µg/mL, the Solubility ([11]; 0.001N HCl, 50° C., after 24 hours) was 1340 µg/mL and the Solubility ([11]; 0.01N HCl, 25° C., after 24 hours) was 690 µg/mL. For the same molecule, the Solubility ([11]; 0.01N HCl, 50° C., after 24 hours) was 1440 µg/mL, the Solubility ([11]; 0.1N HCl, 25° C., after 24 hours) was 2360 µg/mL and the Solubility [11, 15] was 6620 µg/mL. The “XRPD (form of the solid)” value [11, 15] was “B + A”, the Solubility ([11]; Methanol, 25° C., after 24 hours) was 14370 µg/mL and the Solubility ([11]; Methanol, 50° C., after 24 hours) was 52110 µg/mL. It also gave a Solubility ([11]; Methanol/Water (95/5) v/v, 20° C., 10 minutes) of 13640 µg/mL, a Solubility ([11]; Methanol/Water (95/5) v/v, 20° C., 1 hour) of 13430 µg/mL and a Solubility ([11]; Methanol/Water (95/5) v/v, 20° C., 24 hours) of 13010 µg/mL. For the same molecule, the Solubility ([11]; Methanol/Water (95/5) v/v, 45° C., 10 minutes) was 34490 µg/mL, the Solubility ([11]; Methanol/Water (95/5) v/v, 45° C., 1 hour) was 38180 µg/mL and the Solubility ([11]; Methanol/Water (95/5) v/v, 45° C., 24 hours) was 41700 µg/mL. It also gave a Solubility ([11]; Methanol/Water (95/5) v/v, −10° C., 10 minutes) of 9420 µg/mL, a Solubility ([11]; Methanol/Water (95/5) v/v, −10° C., 1 hour) of 6650 µg/mL and a Solubility ([11]; Methanol/Water (95/5) v/v, −10° C., 24 hours) of 4850 µg/mL. For the same molecule, the Solubility ([11]; Methanol/Water (99.5/0.5) v/v, 20° C., 10 minutes) was 12900 µg/mL, the Solubility ([11]; Methanol/Water (99.5/0.5) v/v, 20° C., 1 hour) was 13780 µg/mL and the Solubility ([11]; Methanol/Water (99.5/0.5) v/v, 20° C., 24 hours) was 12210 µg/mL. The Solubility ([11]; Methanol/Water (99.5/0.5) v/v, 45° C., 10 minutes) was 33290 µg/mL, the Solubility ([11]; Methanol/Water (99.5/0.5) v/v, 45° C., 1 hour) was 39390 µg/mL and the Solubility ([11]; Methanol/Water (99.5/0.5) v/v, 45° C., 24 hours) was 40400 µg/mL. For the same molecule, the Solubility ([11]; Methanol/Water (99.5/0.5) v/v, −10° C., 10 minutes) was 7620 µg/mL, the Solubility ([11]; Methanol/Water (99.5/0.5) v/v, −10° C., 1 hour) was 5630 µg/mL and the Solubility ([11]; Methanol/Water (99.5/0.5) v/v, −10° C., 24 hours) was 4000 µg/mL. It also gave a Solubility ([11]; Water, 25° C., after 24 hours) of 1280 µg/mL, a Solubility ([11]; Water, 50° C., after 24 hours) of 1400 µg/mL and an Intrinsic dissolution rate ([12]; Water, listed as Hydrochloride monohydrate (form B)) of 0.0024 mg min^−1cm^−2. The “Intrinsic Dissolution Rate value” ([12]; dissolution medium HCl 0.0001 N) was 0.0010 mg/min/cm^2, the “Intrinsic Dissolution Rate value” ([12]; dissolution medium HCl 0.001 N) was 0.0045 mg/min/cm^2 and the “Intrinsic Dissolution Rate value” ([12]; dissolution medium HCl 0.01 N) was 0.0224 mg/min/cm^2. For the same molecule, the “Intrinsic Dissolution Rate value” ([12]; dissolution medium HCl 0.1 N) was 0.1003 mg/min/cm^2, the “Intrinsic Dissolution Rate value” ([12]; dissolution medium Water) was 0.0001 mg/min/cm^2 and the Intrinsic dissolution rate ([12]; pH 1 (0.1 N HCl)) was 0.17 mg min^−1cm^−2. For the same molecule, the “pH of 1% solution or suspension in water” value [13] was 2.53 and the form conversion [14] was “converts to form A”.
